Here are results for three compounds from article PMC12621189, “Optimization of Selective and CNS Penetrant Alkyne-Based TREK Inhibitors: The Discovery and Characterization of ONO-9517601 (VU6022856) and ONO-7927846 (VU6024391)” (Journal of Medicinal Chemistry, 2025).

Molecules are shown by their SMILES.

What is called IC50 is the concentration that inhibits the measured activity by half. A word on the chromatographic logD: it is lipophilicity estimated from chromatographic retention. Read a high chromatographic logD as a more lipophilic compound. A word on the Kp: it is the ratio of the level in a tissue or fluid to that in plasma or blood.

Data set [1] is described as follows: Liver microsome intrinsic clearance, mouse. To be noted: pH 7.4; mouse liver microsomes, predicted intrinsic clearance; read-out: LMS CLINT mouse. In kind it is in vitro ADME.
The nature of data set [2]: Rat in vivo PK (plasma clearance) in SAR tables. Conditions: read-out: Rat CLp.
For the next data set, the target named is T1, human TREK-1 (hTREK-1) (Homo sapiens, UniProt O95069).
T1 construct: expressed in transfected cells
T1 sequence (O95069 1-426): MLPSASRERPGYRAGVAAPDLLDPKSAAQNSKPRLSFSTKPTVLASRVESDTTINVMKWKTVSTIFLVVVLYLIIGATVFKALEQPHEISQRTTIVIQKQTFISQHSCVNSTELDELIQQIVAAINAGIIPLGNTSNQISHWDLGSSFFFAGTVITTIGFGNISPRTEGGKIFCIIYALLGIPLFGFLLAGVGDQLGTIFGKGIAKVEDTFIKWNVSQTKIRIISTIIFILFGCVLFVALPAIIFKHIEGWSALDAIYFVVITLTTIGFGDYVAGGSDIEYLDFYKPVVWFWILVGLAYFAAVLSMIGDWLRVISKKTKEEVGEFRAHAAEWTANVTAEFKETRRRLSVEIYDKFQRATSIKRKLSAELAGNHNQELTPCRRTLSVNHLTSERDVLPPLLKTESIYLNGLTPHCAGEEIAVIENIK
Description: TREK-1 thallium flux assay (CHO-K1 cells stably expressing hTREK-1). In kind it is cell-based. To be noted: human TREK-1, thallium flux; read-out: h TREK-1 Tl+ IC50. The procedure:
Procedures for Biological Experiments
TREK-1 Thallium flux assay
CHO-K1 cells stably expressing hTREK-1 were cultured in T225 flask. The cells were loaded with FluxOR dye and plated in 384 well plate at the experiment day. Test compounds or control compound (tert-butyl (3-((4-(benzyloxy)-2-methylphenyl)carbamoyl)-4-chlorophenyl)carbamate) or 0.3% DMSO (vehicle control) were added directly to the cell plates and incubated for 10 min, and then treated with thallium stimulus buffer to initiate thallium flux.
To measure the efficacy and potency of test compounds, the change in fluorescence intensity (ΔRatio) and % inhibition were calculated using the following equations:
ΔRatio = (fluorescence intensity at 25 seconds after thallium addition)/(average of fluorescent intensity before thallium addition)
0.3% DMSO - ΔRatio of 10 μM control compound)}x100
% inhibition vs compound concentration were plotted in XLfit and calculated IC50.
CHO-K1 cells stably expressing human TREK-1 (hTREK-1) were cultured in T225 flask.
The cells were loaded with FluxOR dye and plated in 384 well plate at the experiment day. Test compounds or control compound (tert-butyl (3-((4-(benzyloxy)-2-methylphenyl)carbamoyl)-4-chlorophenyl)carbamate) or 0.3% DMSO (vehicle control) which were prepared on separate plates were added to the cell plates and incubated for 10 min, and then the cells with test compounds or […]
chlorophenyl)carbamate) or 0.3% DMSO (vehicle control) were treated with thallium stimulus buffer to initiate thallium flux. To measure the efficacy and potency of test compounds, the change in fluorescence intensity (ΔRatio) and % inhibition were calculated using the following equations: […]

Another data set is described as follows: ChromatoLogD. The data set is classed as physicochemical.
Data set [3] can be described thus: Liver microsome intrinsic clearance, human. Conditions: pH 7.4; human liver microsomes, predicted intrinsic clearance; read-out: LMS CLINT human. In kind it is in vitro ADME. As to the method:
(§1) were incubated in 100 mM potassium phosphate pH 7.4 buffer with 3 mM MgCl2 at 37 °C with constant shaking. After a 5 min preincubation, the reaction was initiated by the addition of NADPH (1 mM). At selected time intervals (0, 3, 7, 15, 25, and 45 min), aliquots were taken and subsequently placed into a 96-well plate containing cold acetonitrile with internal standard (50 ng/mL carbamazepine). Plates were then centrifuged at 3000 rcf (4 °C) for 10 min, and the supernatant was transferred to a separate 96-well plate and diluted 1:1 with water for LC/MS/MS analysis. The in vitro half-life ( 1/2, min, Eq. 1), intrinsic clearance (CLint, mL/min/kg, Eq. 2), and subsequent predicted hepatic clearance (CLhep, mL/min/kg, Eq. 3) was determined employing the […]
(§2) where k represents the slope from linear regression analysis of the natural log percent remaining of a test compound as a function of incubation time […]
(§3) (2) CLint = in vitroT x mg microsomes x gram liver x kg body wt ascale-up factors: of 20 (human) or 45 (rat) […]
(§4) where Qh (hepatic blood flow, mL/min/kg) is 21 (human) or 70 (rat).
(§5) LC/MS/MS Bioanalysis of Samples from Plasma Protein Binding and Intrinsic Clearance […]
(§6) Samples were analyzed on a Thermo Electron TSQ Quantum Ultra triple quad mass spectrometer (San Jose, CA) via electrospray ionization (ESI) with two Themo Electron Accella pumps (San Jose, CA), and a Leap Technologies CTC PAL autosampler (Carrboro, NC). Analytes were […]

Data set [4] is described as follows: Rat brain to plasma ratio (Kp, Kp,uu). The data set is classed as in vivo. To be noted: male, Sprague Dawley, brain and plasma, intravenous, 0.2 mg/kg; rat brain:plasma. As to the method: Determination of brain to plasma ratio:
All animal study procedures were approved by the Institutional Animal Care and Use Committee and were conducted in accordance with the National Institutes of Health regulations of animal care covered in Principles of Laboratory Animal Care (National Institutes of Health). All rats were fasted overnight prior to testing.
For determination of the brain over plasma ratio (Kp), compounds were formulated in 8% ethanol, 32% PEG400 and 60% DMSO (v/v/v) and administered as a single 0.2 mg/kg IV dose (1 mL/kg) to male, Sprague Dawley rats (n = 1) via injection into a surgically-implanted jugular vein catheter. At 15 min post dosing, blood sample was collected into chilled, K2EDTA anticoagulant-fortified tube and immediately placed on wet ice. The blood sample was then centrifuged (1700 rcf, 5 minutes, 4 °C) to obtain plasma sample. At the same post-administration time point, whole brain sample was obtained by rapid dissection, rinsed with PBS, and immediately frozen in individual tissue collection box (dry ice). All brain and plasma samples were stored at -80 °C until […]
Sample Analysis: Concentrations in plasma and brain homogenates were quantified by liquid chromatography tandem mass spectrometry (LC-MS/MS). Whole brains were homogenized in 3 mL of 70:30 IPA:water in a mini bead beater for 3 min, and centrifuged at 3,500 g for 5 min. 5 uL of the supernatant was diluted in 15 uL of blank plasma for quantification of the analytes. Plasma samples were centrifuged at 3,500 g for 5 min. A standard curve was generated by diluting the analytes DMSO stocks with blank plasma to obtain a final concentration of 10,000 ng/ml followed by a serial dilution down to 0.5 ng/ml. Quality controls were generated by a serial dilution of the 5,000 ng/ml standard curve solution in blank plasma to obtain 3 concentrations of 500, 50, and 5 ng/ml. 20 uL of brain diluted in plasma, plasma, blank plasma, standard curve and QC samples were loaded in a V-bottom 96-well plate. 120 uL of acetonitrile containing 0.05 uM carbamazepine (internal standard) was added to each well and the plate was centrifuged at 3,500 g for 5 min. 60 uL of the supernatant of each well (protein free) was transferred to a new 96-well plate containing 60 uL of water. The plates were sealed for analysis by LC-MS/MS.
Plasma and brain tissue samples originating from in vivo studies were analyzed by electrospray ionization using an AB Sciex Q-TRAP 5500 (Foster City, CA) that was coupled to a Shimadzu LC-20AD pump (Columbia, MD) and a Leap Technologies CTC PAL auto-sampler (Carrboro, NC). Analytes were separated by gradient elution using a C18 column (3 x 50 mm, 3 mm; Fortis Technologies Ltd, Cheshire, UK) that was thermostated at 40 °C. HPLC mobile phase A was 0.1% formic acid in water (pH unadjusted); mobile phase B was 0.1% formic acid in acetonitrile (pH […]
min, with an isocratic hold for 0.5 min, before transitioning to 10% B over 0.05 min. The column was re-equilibrated (1 min) before the next sample injection. The total run time was 2.55 min, and the HPLC flow rate was 0.5 ml/min. The source temperature was set at 500 °C, and mass spectral analyses were performed using a Turbo-Ion spray source in positive ionization mode (5.0-kV spray voltage) and using multiple-reaction monitoring of transitions specific for the analytes. All data were analyzed using AB Sciex Analyst 1.5.1 software.
Brain plasma concentration ratio (Kp) was calculated by dividing brain concentration by plasma concentration for each animal. Unbound brain to unbound plasma concentration ratio (Kp,uu) is calculated using the following formula: Kp,uu = (Brain ng/g x brain fu)/(plasma ng/ml x plasma fu).
In-vitro determination of blood-brain barrier penetration potential
Blood-brain barrier penetration was determined using MDR1-MDCK cell monolayers by Absorption Systems, following their protocol. In short, compounds were incubated at […] final concentration on one side of the cell monolayer for 2 hours. […]

Data set [5] in a line: Plasma protein binding, mouse. To be noted: mouse, plasma, pH 7.4, mouse plasma, bound; read-out: PPB mouse (converted). The data set is classed as in vitro ADME. As to the method: Plasma protein binding and Brain homogenate binding: Determination of fraction unbound (f u) in plasma was conducted in vitro via equilibrium dialysis using HTDialysis (HTD) membrane plates. The top half of the plate was filled with 100 uL of Dubelco’s Phosphate Buffered Saline, pH 7.4 (DPBS). Compounds were diluted into plasma from each species (5 µM final concentration), which was aliquoted in triplicate to the ‘bottom half’ of the prepared HTD plate wells. The HTD plate was sealed and incubated for 6 hours at 37 °C. Following incubation, each well (both top and bottom halves) were transferred (20 µL) to the corresponding wells of a 96-shallow-well (V-bottom) plate. The daughter plates were then matrix-matched (DPBS side wells received equal volume of plasma, and plasma side wells received equal volume of DPBS), and extraction solution (120 µL; acetonitrile containing 50 nM carbamazepine as IS) was added to all wells of both daughter plates to precipitate protein and extract test article. The plates were then sealed and centrifuged (3500 rcf) for 10 minutes at ambient temperature. Supernatant (60 µL) from each well of the daughter plates was then transferred to the corresponding wells of new daughter plates (96-shallow-well, V bottom) containing water (Milli-Q, 60 µL/well), and the plates were sealed in preparation for LC-MS/MS analysis (see LC-MS/MS analysis method below).
The unbound fraction (f u) was calculated following the equation below, and mean values for each species were calculated from 3 replicates. […]
Fraction unbound for both plasma and brain samples was determined using Equation 4.
Equation 4 Determination of fraction unbound in plasma. […]

Data set [6] can be described thus: Liver microsome intrinsic clearance, rat. In kind it is in vitro ADME. To be noted: pH 7.4; rat liver microsomes, predicted intrinsic clearance; read-out: LMS CLINT rat. The procedure:
as §1, §2, §3, §4, §5, §6

In the case of `Cc1cc(C#Cc2ccccc2)cnc1NC(=O)c1cc(OCC2COCCO2)ccc1Cl` (stereo not drawn) [Compound 13c, 2-Chloro-5-(1,4-dioxan-2-ylmethoxy)-N-[3-methyl-5-(2-phenylethynyl)-2-pyridyl]benzamide], the CLint scaled at 1 µM in data set [1] was 107 mL/min/kg; in data set [3] it was 36 mL/min/kg. For the same compound, the clearance in data set [2] was 16.2 mL/min/kg. In addition, the half-maximal inhibitory concentration (IC50) on human TREK-1 (hTREK-1) was 130 nM. The chromatographic logD in “ChromatoLogD” was found to be 4.14. In addition, the Kp at 15 min in data set [4] was determined as 0.89.

On to `Cc1cc(C#Cc2ccccc2)cnc1NC(=O)c1c(Cl)cnn1CCCC#N` [Compound 15d, 4-Chloro-1-(3-cyanopropyl)-N-(3-methyl-5-(phenylethynyl)pyridin-2-yl)-1H-pyrazole-5-carboxamide], for which the fraction unbound at 6 h, 5 µM in data set [5] is 0.001. In addition, the CLint scaled at 1 µM in data set [6] is 30 mL/min/kg; in data set [3] it was 9 mL/min/kg.

For `Cc1cc(C#Cc2ccccc2)cnc1NC(=O)c1cc(C(=O)N2CC(F)(F)C2)ccc1Cl` [Compound 13a, 2-Chloro-5-(3,3-difluoroazetidine-1-carbonyl)-N-[3-methyl-5-(2-phenylethynyl)-2-pyridyl]benzamide], the CLint scaled at 1 µM in data set [1] was 75 mL/min/kg; in data set [3], 18 mL/min/kg. Besides, in data set [2], the clearance was 328 mL/min/kg. Moreover, at human TREK-1 (hTREK-1), the 50% inhibitory concentration (IC50) turned out to be 320 nM. Also, the chromatographic logD in the data set “ChromatoLogD” came to 4.03. In addition, the Kp at 15 min in data set [4] was determined as 0.84.
